The subject of experiment [1] is Jak2. Kind of experiment: EV mtDNA copy number from CAFs in hypoxia reoxygenation ± Jak2 inhibitor. Format: cell-based. To be noted: 500 nM every 3 days, FIG. 14. The method, then: FIG. 14 reports that hypoxia reoxygenation culture condition increases EV mtDNA copy number in a Jak2-Stat(s) dependent manner. 10-cm plates with 10^6 cells (CAFs) were cultured in 1% O2 (hypoxia) for 4 days and 3 days in normal culture conditions (20% O2, hyperoxia) in presence/absence of Jak2 inhibitor (500 nM every 3 days). Conditioned media for EV isolation and DNA level from EVs was analyzed. As control, EVs from 20% O2, hyperoxia were also collected and analyzed. MtDNA as copy number is shown as bar graphs, mean±error bars of ND1 level obtained from EV-DNA (10 ng total DNA).

For experiment [2], the system named is HTS cells. Kind of experiment: Proliferation in presence of OXPHOS inhibitors ± HT. Format: cell-based, human. To be noted: with and without fulvestrant. The protocol:
FIG. 8 reports that OXPHOS inhibition abrogates HTR disease. (Panel a), Proliferation potential as determined by in vitro cell growth (CalceinAM) in luminal (ER+) and triple negative cancer cell lines cultured in media with increasing concentration of glucose. (Panel b), Oxygen consumption rates (OCR)±oligomycin (200 nM)/rotenone (100 nM) in MCF7 and MDA-MB-231 cells as determined by seahorse technology. (Panel c), Desmin immunohistochemical images of CAFs in HTS/HTR-derived tissues (scale bar 25 μm). (Panel d), Schematic analysis of the generation of metastatic HTR disease in mice. […] Metastatic burden was analyzed by BLI and at necropsy by histological examination (H&E). (Panel e), Proliferation potential in presence of oligomycin (100 nM) and ±HT as determined by in vitro BLI in metastatic cells from HTS and HTR cells FACS purified from xenografts (FIG. 2a). […] (Panel f), mtDNA/nDNA level in circulating EVs from HTR xenografts as determined by copy number (GAPDH, ND1: qPCR Fold change). […]
For immunoblotting assays, cells were lysed in buffer (50 mmol/L Tris at pH 7.5, 150 mmol/L NaCl, 5 μg/mL aprotinin, pepstatin, 1% NP-40, lmmol/L EDTA, 0.25% deoxycholate, and protease inhibitor cocktail tablet, Sigma). […] The enrichment of CAFs in xenografts was determined by desmin immunohistochemistry (IHC) in tumor-derived sections. […]

Experiment [3] relates to mu-mtDNAhi HTR cells. The experiment is described as above. To be noted: with and without fulvestrant; atovaquone 1 μM, rotenone 100 nM, oligomycin 200 nM; FIG. 2f, 8e. Format: cell-based, human. An excerpt:
(Panel a) Representative tumor growth kinetics (BLI) of GFP+/Luciferase+MCF7 xenografts (n=10) treated with weekly fulvestrant once mammary fat pad tumors were established (after 3 months) which led to a period (4 months) of disease stability on HT (HTS) followed by exponential growth on HT (HTR). Representative H&E images of tumors and primary cultures from unsorted as well as FACS purified cancer cells (GFP+/Epcam+) and murine CAFs (GFP−/Epcam). Scale bar 20 μm. (Panel b) OXPHOS potential in tumor-derived cancer cells (panel a) was measured±HT (fulvestrant, 10 μM) by Seahorse. […] (Panel d) Percentage of metastatic lesions isolated by FACS from tumor-bearing mice (n=8/group) expressing murine mtDNA as determined by ND1 qPCR (2 ng of total DNA). Oxygen consumption rates (OCR) in murine-mtDNApos and ctrl HTR cells determined by Seahorse. (Panel e) Murine mitochondrial RNA expression (12 genes: ND1, ND2, COX2, ATP8, ATP6, COX3, ND3, ND4L, ND4, ND5, ND6, CytB) as fold change (logioscale) determined by qRT-PCR in HTR and HTS cells (panel a). […]
FIG. 8 reports that OXPHOS inhibition abrogates HTR disease. (Panel a), Proliferation potential as determined by in vitro cell growth (CalceinAM) in luminal (ER+) and triple negative cancer cell lines cultured in media with increasing concentration of glucose. […]

Experiment [4] deals with MCF7 model metastases. The experiment can be described thus: Metastatic assay: mastectomy followed by adjuvant HT in MCF7 tumor-bearing mice. Format: in vivo. To be noted: adjuvant tamoxifen after mastectomy, followed ~9 months. The method, then:
FIG. 8 reports that OXPHOS inhibition abrogates HTR disease. (Panel a), Proliferation potential as determined by in vitro cell growth (CalceinAM) in luminal (ER+) and triple negative cancer cell lines cultured in media with increasing concentration of glucose. (Panel b), Oxygen consumption rates (OCR)±oligomycin (200 nM)/rotenone (100 nM) in MCF7 and MDA-MB-231 cells as determined by seahorse technology. (Panel c), Desmin immunohistochemical images of CAFs in HTS/HTR-derived tissues (scale bar 25 μm). (Panel d), Schematic analysis of the generation of metastatic HTR disease in mice. […] Metastatic burden was analyzed by BLI and at necropsy by histological examination (H&E). (Panel e), Proliferation potential in presence of oligomycin (100 nM) and ±HT as determined by in vitro BLI in metastatic cells from HTS and HTR cells FACS purified from xenografts (FIG. 2a). Error bars, mean±s.d. of BLI from n=3 samples. (Panel f), mtDNA/nDNA level in circulating EVs from HTR xenografts as determined by copy number (GAPDH, ND1: qPCR Fold change). Data are reported as error bars, mean±s.d. of n=3 independent experiments (a, e-g). *P<0.05 (Student's t-test) and GLM anova after multiple comparisons (a).
All cancer cell lines were engineered to express a GFP positive luciferase expression vector for in vitro and in vivo imaging studies. […] EV-number was determined by Nanosight. […]

As to `Cc1cc(Nc2nc(N[C@@H](C)c3ncc(F)cn3)ncc2Cl)[nH]n1` [AZD 1490], the “generation of mtDNA high EVs” value in experiment [1] is “hampering the generation of mtDNA high EVs”.
For the molecule `CC[C@H]1/C=C/C=C/C[C@@H](C)[C@H](O)[C@@](C)(O)C(=O)[C@@H](C)[C@H](O)[C@@H](C)C(=O)[C@@H](C)[C@H](O)[C@@H](C)/C=C/C(=O)O[C@@H]2[C@H](C)[C@H](CC1)O[C@]1(CC[C@H](C)[C@H](C[C@@H](C)O)O1)[C@H]2C` [oligomycin], in experiment [2], the “combined effect with HT on cell proliferation and/or cell death of HTS cells” value is recorded as “no synergistic effect”. For the same molecule, the “sensitivity of HTR cells to HT (proliferation)” value in experiment [3] is given as “re-sensitized HTR cells to HT”.
Turning to `C=C(C)[C@H]1Cc2c(ccc3c2O[C@@H]2COc4cc(OC)c(OC)cc4[C@@H]2C3=O)O1` [rotenone], the “combined effect with HT on cell proliferation and/or cell death of HTS cells” value in experiment [2] is given as “no synergistic effect”. Further, the “sensitivity of HTR cells to HT (proliferation)” value in experiment [3] is recorded as “re-sensitized HTR cells to HT”.
`CC/C(=C(\c1ccccc1)c1ccc(OCCN(C)C)cc1)c1ccccc1` [tamoxifen]: in experiment [4], the “HT treated mice with no evidence of disease” value was 90% and the “HT treated mice with wide-spread (>20) HTR metastases involving multiple organs” value is reported as 10%.

Values taken from patent US20190382850A1, “METHOD FOR IDENTIFYING MITOCHONDRIAL DNA IN EXTRACELLULAR VESICLES AND TREATMENT OF MTDNA-RELATED DISORDERS AND CANCER” (Memorial Sloan-Kettering Cancer Center, priority 2017, published 2019).
